Reference: US12208146B2, “Reconstituted HDL nanoparticles for delivery of radioactive agents and uses thereof” (UNIVERSITY OF NORTH TEXAS HEALTH SCIENCE CENTER, priority 2018, dated 2025)

Tested on: PC3 cells
Test: Cell uptake experiments with and without SR-B1 blocking by unlabeled rHDL
Type: cell-based
Settings: for total uptake: PC-3 cells
Method: PC3 cells were harvested and diluted in fresh medium (1×10^5 cells/well, 0.5 mL) and then seeded in 24-well tissue culture plates. After 24 h, the medium was removed, and the cells were incubated with 100 μL/well of phosphate buffered saline (PBS) and the following treatments per well: 2 kBq of ^99mTcO4−, and 30 μL of 1 μg/μL of ^99mTc-rHDL, ^99mTc-Liposome, and ^99mTc-HYNIC-DA for 45 min at 37° C. Then, cells were rinsed two times with 0.5 mL of ice-cold PBS. These two washes were combined and represent the ^99mTcO4^−, ^99mTc-rHDL, ^99mTc-Liposome, and ^99mTc-HYNIC-DA not bounded to cells. Cells were washed with 1 mL of PBS and later were incubated twice with 0.5 mL of Glycine-HCl (50 mM, pH 2.8). The Glycine-HCl washes were combined, these washed recovered the ^99mTcO4^−, ^99mTc-rHDL, ^99mTc-Liposome, and ^99mTc-HYNIC-DA adhered or bounded to cell membrane. Cells were washed with 1 mL of PBS, and finally were washed twice with 0.5 mL of 1.0 M NaOH (lysed cells) to recover the ^99mTcO4^−, ^99mTc-rHDL, ^99mTc-Liposome, and ^99mTc-HYNIC-DA internalized in the cytoplasm (washes were combined). Radioactivity was measured in the initial PBS, Glycine-HCl and NaOH combined washes using a NaI(Tl) detector (NML Inc. USA). The initial activity of each treatment was taken to represent 100% of activity. In parallel, the nonspecific binding was determined using 30 μL of 60 μg/μL of unlabeled rHDL, which blocked SR-B1 receptors on PC3 cells.

**Q.** Which results are given for `[O]=[99Tc](=[O])(=[O])[O-]` [^99m TcO4^−]?
**A.** total uptake (with SR-B1 blocking): 2.9%; total uptake (without SR-B1 blocking): 2.8%; incorporation into cells (control groups, data not shown): only marginal incorporation into cells
